# Assay results published in ChEMBL document CHEMBL5465560, “Selectivity Literature for EUbOPEN Chemogenomic Library” (2024).
# Assays:
# [1] = target: T1, Ephrin type-B receptor 2 (Homo sapiens) (UniProt P29323); assay: Selectivity interaction (KinomeScan (DiscoverX)) EUB0000092b EPHB2; conditions: at 10 µM
# T1 sequence (whole entry): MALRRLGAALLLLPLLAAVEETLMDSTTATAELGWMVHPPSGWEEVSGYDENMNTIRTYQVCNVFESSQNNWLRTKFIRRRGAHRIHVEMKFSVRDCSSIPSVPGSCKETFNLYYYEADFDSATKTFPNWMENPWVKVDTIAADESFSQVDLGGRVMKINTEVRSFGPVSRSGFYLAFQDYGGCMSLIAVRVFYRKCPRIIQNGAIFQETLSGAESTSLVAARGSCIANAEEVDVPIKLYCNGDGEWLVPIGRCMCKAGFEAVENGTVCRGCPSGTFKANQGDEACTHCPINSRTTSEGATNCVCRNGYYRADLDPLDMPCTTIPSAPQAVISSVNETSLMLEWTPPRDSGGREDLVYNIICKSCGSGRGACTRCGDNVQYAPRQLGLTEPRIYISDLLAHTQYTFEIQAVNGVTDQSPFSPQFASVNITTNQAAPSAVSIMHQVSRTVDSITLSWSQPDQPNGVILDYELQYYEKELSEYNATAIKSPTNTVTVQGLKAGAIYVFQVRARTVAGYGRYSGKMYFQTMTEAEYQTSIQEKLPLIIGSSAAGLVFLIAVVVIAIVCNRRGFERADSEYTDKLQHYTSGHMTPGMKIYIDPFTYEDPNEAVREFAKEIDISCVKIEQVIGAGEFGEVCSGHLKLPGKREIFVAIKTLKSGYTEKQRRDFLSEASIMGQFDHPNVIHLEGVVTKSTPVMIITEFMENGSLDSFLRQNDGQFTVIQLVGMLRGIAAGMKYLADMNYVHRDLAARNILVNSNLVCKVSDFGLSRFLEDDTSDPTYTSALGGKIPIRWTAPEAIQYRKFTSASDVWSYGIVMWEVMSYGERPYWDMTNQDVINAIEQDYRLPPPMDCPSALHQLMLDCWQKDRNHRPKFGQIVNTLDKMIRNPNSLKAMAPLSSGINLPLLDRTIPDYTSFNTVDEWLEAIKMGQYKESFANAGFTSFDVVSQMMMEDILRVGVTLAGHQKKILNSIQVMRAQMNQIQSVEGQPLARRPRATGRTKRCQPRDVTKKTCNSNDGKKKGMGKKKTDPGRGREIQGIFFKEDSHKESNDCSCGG
# [2] = target: T2, Inhibitor of nuclear factor kappa-B kinase subunit alpha (Homo sapiens) (UniProt O15111); assay: Selectivity interaction (KinomeScan (DiscoverX)) EUB0000655a CHUK; conditions: at 10 µM
# T2 sequence (whole entry): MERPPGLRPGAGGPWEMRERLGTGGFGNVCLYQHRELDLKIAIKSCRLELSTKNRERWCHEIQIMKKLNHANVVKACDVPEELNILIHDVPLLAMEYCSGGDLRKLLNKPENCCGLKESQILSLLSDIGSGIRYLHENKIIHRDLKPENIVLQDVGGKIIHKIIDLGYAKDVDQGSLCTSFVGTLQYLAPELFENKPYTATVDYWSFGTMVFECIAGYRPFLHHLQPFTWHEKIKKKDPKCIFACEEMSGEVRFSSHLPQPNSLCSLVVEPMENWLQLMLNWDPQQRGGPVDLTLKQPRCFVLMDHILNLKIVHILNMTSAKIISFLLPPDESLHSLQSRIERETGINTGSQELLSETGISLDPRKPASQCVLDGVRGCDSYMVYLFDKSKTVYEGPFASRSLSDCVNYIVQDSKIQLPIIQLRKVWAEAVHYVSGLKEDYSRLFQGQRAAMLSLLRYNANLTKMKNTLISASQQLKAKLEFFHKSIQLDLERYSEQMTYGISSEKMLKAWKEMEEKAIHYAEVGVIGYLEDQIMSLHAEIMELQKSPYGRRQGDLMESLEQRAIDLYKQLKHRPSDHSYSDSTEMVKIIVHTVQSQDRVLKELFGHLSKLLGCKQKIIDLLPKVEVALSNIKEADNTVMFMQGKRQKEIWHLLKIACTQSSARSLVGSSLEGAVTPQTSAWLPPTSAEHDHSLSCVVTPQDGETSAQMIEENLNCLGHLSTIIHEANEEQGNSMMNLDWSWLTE
# [3] = target: Tyrosine-protein kinase Fer (Homo sapiens) (UniProt P16591); assay: Selectivity interaction (KinomeScan (DiscoverX)) EUB0001079a FER; conditions: at 1 µM
# Sequence of Tyrosine-protein kinase Fer (Homo sapiens) (P16591 whole entry, looked up): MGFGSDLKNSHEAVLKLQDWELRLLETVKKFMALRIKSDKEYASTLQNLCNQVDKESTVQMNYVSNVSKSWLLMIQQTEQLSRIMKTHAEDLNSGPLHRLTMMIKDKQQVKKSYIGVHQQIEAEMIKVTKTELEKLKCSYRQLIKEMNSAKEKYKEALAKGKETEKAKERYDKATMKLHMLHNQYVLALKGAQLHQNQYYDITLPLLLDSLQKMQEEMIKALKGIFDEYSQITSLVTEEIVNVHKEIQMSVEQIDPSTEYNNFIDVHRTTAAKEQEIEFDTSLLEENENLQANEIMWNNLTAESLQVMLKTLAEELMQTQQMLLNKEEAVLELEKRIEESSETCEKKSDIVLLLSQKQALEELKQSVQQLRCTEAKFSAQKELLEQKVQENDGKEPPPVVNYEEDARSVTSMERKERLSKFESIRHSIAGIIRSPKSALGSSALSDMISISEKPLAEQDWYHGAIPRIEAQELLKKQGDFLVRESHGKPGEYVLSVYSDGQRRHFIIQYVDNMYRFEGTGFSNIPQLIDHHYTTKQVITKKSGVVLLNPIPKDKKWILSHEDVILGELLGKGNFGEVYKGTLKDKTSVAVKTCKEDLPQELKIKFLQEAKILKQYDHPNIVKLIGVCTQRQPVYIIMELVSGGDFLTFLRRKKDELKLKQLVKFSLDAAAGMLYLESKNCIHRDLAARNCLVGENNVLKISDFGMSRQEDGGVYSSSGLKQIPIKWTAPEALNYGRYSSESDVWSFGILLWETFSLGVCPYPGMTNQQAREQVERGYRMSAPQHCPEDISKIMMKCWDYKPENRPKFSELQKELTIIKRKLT
# [4] = target: Protein kinase C eta type (Homo sapiens) (UniProt P24723); assay: Selectivity interaction (KinomeScan (DiscoverX)) EUB0000666a PRKCH; conditions: at 10 µM
# Sequence of Protein kinase C eta type (Homo sapiens) (P24723 whole entry): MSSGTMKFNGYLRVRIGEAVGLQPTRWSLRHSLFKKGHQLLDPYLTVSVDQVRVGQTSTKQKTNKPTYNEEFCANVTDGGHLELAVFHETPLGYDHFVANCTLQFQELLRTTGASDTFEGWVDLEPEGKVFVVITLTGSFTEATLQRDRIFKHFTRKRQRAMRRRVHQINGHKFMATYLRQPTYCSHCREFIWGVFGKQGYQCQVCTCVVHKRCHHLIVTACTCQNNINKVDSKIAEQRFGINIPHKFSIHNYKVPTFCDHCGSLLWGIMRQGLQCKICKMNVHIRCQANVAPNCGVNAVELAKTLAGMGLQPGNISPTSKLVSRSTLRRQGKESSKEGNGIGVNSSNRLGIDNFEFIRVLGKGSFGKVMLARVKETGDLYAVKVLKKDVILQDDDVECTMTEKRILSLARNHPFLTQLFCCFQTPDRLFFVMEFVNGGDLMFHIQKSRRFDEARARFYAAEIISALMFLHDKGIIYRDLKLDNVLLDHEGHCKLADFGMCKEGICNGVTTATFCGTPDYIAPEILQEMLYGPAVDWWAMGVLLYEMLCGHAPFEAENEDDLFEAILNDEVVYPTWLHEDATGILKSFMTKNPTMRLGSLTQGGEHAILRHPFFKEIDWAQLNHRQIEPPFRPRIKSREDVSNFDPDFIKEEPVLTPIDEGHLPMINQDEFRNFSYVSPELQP
# [5] = target: Cyclin-dependent kinase 1/cyclin B (Homo sapiens) (UniProt P06493+P14635+Q8WWL7+O95067); assay: Selectivity interaction (Kinase panel (Z-LYTE Assay)) EUB0001632a CDK1; type: protein-complex assay; conditions: at 10 µM
# [6] = target: Mitogen-activated protein kinase 4 (Homo sapiens) (UniProt P31152); assay: Selectivity interaction (KinomeScan (DiscoverX)) EUB0001049a MAPK4; conditions: at 1 µM
# Sequence of Mitogen-activated protein kinase 4 (Homo sapiens) (P31152 whole entry): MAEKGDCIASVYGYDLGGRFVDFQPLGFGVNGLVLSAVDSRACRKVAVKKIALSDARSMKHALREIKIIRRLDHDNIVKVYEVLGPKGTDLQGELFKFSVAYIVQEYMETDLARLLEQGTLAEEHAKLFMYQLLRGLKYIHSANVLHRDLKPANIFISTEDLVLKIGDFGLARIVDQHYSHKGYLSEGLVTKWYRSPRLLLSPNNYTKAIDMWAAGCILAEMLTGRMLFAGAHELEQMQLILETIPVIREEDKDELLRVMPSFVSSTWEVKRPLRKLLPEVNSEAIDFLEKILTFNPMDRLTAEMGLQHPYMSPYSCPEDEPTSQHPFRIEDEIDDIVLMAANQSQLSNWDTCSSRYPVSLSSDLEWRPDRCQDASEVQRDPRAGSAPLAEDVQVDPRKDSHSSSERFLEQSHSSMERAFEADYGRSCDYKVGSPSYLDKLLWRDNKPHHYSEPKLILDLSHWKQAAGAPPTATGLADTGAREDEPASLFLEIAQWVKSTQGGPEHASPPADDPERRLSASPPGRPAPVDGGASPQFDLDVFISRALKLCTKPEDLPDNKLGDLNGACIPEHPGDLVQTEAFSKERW
# [7] = target: Sodium-dependent noradrenaline transporter (Homo sapiens, UniProt P23975); assay: Selectivity interaction (Panel of non-epigenetic targets (kinases, GPCRs, ion channels, and transporters, Eurofins) ) EUB0000271b SLC6A2; conditions: at 1 µM
# Sequence of Sodium-dependent noradrenaline transporter (P23975 whole entry): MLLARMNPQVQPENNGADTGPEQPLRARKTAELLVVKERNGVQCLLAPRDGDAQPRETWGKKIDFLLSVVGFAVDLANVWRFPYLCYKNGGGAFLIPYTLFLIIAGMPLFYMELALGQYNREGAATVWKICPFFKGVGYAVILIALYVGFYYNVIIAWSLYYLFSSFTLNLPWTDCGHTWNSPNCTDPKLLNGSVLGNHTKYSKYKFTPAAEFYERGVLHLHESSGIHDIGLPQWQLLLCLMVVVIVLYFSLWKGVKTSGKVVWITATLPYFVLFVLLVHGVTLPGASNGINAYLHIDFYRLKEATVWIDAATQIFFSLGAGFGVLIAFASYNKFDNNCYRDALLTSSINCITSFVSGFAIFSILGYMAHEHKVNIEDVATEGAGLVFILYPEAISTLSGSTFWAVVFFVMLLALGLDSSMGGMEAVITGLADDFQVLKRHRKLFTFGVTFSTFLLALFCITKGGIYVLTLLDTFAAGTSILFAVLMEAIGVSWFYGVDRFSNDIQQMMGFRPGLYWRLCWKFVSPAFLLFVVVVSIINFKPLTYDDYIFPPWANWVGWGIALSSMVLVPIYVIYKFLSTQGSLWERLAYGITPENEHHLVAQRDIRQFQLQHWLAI
# [8] = target: Serine/threonine-protein kinase SIK2 (Homo sapiens) (UniProt Q9H0K1); assay: Selectivity interaction (KinomeScan (DiscoverX)) EUB0000695a SIK2; conditions: at 100 nM
# Sequence of Serine/threonine-protein kinase SIK2 (Homo sapiens) (Q9H0K1 whole entry, looked up): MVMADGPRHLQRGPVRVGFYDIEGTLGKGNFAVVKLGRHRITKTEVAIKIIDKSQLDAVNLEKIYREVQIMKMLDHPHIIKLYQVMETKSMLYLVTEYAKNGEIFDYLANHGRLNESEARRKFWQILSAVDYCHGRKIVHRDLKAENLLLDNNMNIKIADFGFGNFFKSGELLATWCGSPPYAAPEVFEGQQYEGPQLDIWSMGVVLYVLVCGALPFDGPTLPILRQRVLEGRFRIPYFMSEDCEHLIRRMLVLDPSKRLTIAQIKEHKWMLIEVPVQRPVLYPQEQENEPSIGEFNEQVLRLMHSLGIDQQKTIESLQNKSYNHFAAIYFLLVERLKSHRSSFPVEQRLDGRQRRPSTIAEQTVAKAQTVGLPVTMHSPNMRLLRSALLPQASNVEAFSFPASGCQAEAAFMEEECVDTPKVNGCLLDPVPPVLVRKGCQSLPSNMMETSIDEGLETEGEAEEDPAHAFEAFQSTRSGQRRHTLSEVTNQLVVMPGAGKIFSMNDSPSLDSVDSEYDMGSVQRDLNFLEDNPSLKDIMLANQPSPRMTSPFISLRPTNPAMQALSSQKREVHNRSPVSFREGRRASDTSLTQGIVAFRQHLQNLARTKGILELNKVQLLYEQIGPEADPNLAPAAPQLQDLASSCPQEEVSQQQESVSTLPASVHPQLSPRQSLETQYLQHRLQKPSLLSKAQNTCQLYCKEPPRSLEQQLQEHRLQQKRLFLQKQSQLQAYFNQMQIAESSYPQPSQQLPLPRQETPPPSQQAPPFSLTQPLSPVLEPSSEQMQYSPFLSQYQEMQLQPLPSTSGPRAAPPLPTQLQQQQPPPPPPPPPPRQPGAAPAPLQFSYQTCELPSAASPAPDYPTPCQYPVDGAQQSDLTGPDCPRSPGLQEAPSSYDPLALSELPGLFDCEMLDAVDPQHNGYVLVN
# [9] = target: T3, Serine/threonine-protein kinase Chk1 (Homo sapiens) (UniProt O14757); assay: Selectivity interaction (Kinase panel (literature)) EUB0001199aCl CHEK1; conditions: at 1 µM
# T3 sequence (whole entry): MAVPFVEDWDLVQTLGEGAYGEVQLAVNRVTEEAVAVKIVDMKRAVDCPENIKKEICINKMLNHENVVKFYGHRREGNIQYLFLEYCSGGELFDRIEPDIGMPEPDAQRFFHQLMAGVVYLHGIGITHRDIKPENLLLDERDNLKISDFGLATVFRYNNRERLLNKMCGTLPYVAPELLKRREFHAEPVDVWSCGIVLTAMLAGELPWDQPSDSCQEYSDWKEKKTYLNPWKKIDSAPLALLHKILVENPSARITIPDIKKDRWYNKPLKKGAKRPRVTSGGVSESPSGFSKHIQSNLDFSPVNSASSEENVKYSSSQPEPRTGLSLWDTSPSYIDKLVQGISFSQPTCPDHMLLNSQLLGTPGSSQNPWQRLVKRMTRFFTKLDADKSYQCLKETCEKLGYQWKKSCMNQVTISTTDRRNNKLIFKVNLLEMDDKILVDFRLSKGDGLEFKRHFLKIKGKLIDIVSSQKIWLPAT
# [10] = tested on: Epidermal growth factor receptor (Homo sapiens), P00533 [UNDEFINED MUTATION]; assay: Selectivity interaction (Ambit KINOMEscan and KiNATiv profiling in Jurkat cells) EUB0000090b EGFR; type: cell-based; conditions: at 1 µM
# Sequence of Epidermal growth factor receptor (Homo sapiens), P00533 [UNDEFINED MUTATION] (P00533 whole entry, looked up, change not shown): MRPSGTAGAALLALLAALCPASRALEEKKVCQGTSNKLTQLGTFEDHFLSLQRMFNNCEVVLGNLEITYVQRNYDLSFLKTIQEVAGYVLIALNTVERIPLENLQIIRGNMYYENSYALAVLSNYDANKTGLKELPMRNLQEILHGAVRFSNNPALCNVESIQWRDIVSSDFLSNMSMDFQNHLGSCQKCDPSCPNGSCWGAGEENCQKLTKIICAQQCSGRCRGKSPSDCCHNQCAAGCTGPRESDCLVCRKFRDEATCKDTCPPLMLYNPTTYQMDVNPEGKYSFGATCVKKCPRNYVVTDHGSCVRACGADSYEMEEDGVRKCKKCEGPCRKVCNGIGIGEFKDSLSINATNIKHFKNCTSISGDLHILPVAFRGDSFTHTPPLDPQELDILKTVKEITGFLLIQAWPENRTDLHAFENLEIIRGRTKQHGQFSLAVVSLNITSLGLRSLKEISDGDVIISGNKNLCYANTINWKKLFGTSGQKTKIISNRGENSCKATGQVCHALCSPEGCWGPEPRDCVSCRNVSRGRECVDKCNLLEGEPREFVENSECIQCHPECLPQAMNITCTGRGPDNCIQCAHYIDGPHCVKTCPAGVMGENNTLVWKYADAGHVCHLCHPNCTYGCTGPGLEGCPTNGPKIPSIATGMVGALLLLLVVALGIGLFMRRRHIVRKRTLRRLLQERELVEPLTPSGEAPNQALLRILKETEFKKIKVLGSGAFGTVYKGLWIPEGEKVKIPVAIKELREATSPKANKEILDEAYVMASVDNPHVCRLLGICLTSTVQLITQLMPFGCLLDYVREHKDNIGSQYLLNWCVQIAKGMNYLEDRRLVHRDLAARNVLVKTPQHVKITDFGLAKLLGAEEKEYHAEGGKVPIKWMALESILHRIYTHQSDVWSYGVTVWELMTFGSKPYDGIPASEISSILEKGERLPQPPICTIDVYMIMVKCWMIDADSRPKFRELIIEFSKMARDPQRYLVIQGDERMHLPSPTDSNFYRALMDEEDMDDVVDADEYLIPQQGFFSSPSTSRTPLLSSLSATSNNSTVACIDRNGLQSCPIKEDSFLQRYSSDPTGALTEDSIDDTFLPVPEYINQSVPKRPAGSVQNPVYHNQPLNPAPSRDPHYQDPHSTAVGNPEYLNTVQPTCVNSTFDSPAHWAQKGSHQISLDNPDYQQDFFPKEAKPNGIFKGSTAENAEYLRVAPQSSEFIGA
structure (smiles),measurement,setting,value
CCC(=O)N1CCN(c2ccc(-n3c(=O)ccc4cnc5ccc(-c6cnc7ccccc7c6)cc5c43)cc2C(F)(F)F)CC1,% of control,[1],100%
CN(C)CCOc1ccc(-c2nc(-c3ccncc3)c(-c3ccc4c(c3)CC/C4=N\O)[nH]2)cc1,% of control,[2],92%
Nc1cnc(N2CCc3cc(S(=O)(=O)Nc4c(F)cc(Cl)cc4F)cc(N4CCCC4=O)c32)nc1 [TP-020n],% of control,[3],100%
O=C(NOC[C@H](O)CO)c1ccc(F)c(F)c1Nc1ccc(I)cc1F,% of control,[4],100%
Cn1cc(-n2cnc3c(NCc4nc5cc(Cl)c(Cl)cc5[nH]4)nc(N4CCOCC4)nc32)cn1,% of control,[5],3.94%
COc1cc(Nc2nc(C)cc(-c3cnn4nc(OC)ccc34)n2)cc(C(F)(F)F)c1,% of control,[6],100%
Cc1cc(C)cc([C@@H]2c3cc(C)ccc3NC(=O)CN2C(=O)c2ccc(Br)s2)c1,% of inhibition,[7],-4%
Cc1cc(F)c(C(=O)Nc2cccc(-c3nncn3C(C)C)n2)cc1-n1cnc(C2CC2)c1,% of control,[8],100%
CN1Cc2nccc(-c3cn(C)nc3-c3ccc(F)cc3)c2C1=O,% of inhibition,[9],7%
CN(C)C/C=C/C(=O)Nc1ccc(C(=O)N2CCCC(Nc3ncc(Cl)c(-c4c[nH]c5ccccc45)n3)C2)cc1 (stereo not given),% of control,[10],94%
